Results as given in US10323020B2, “Substituted piperidinyl tetrahydroquinolines” (Bayer Pharma Aktiengesellschaft, priority 2013, dated 2019).
pIC50: −log10 of the molar value. Counter-ions that a name gives are not always drawn.

How the values were obtained:
[1] = target: recombinant human α2C receptor (Homo sapiens (Human), UniProt P18825); assay: Antagonism against the adrenoreceptor α2C (luminescence, noradrenaline-stimulated CHO cells); assay type: cell-based; settings: noradrenaline 20 nM; CHO cell line with Gαqi3 and mtOb
recombinant human α2C receptor, sequence (P18825 whole entry, the tested form may be a part): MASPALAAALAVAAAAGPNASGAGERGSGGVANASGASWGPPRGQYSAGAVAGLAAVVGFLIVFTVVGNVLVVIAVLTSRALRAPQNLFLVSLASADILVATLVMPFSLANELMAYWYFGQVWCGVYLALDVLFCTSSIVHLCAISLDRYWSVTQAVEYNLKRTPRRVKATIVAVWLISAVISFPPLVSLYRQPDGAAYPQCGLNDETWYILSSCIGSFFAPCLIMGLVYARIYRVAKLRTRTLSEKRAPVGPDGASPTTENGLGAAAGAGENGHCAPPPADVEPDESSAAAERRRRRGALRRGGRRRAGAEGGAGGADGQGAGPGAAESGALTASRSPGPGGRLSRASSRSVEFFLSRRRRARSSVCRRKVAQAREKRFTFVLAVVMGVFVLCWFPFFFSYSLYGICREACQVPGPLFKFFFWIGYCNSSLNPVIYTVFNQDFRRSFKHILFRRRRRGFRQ
Description: Antagonism against the adrenoreceptor α1A was tested using a recombinant human α1A receptor CHO cell line which additionally also recombinantly expresses mtAeq (mitochondrial aequorin). Antagonism against the adrenoreceptor α2A was tested using a recombinant human α2A-Gα16 receptor fusion protein CHO cell line (PerkinElmer Life Sciences) which additionally also recombinantly expresses mtAeq. Antagonism against the adrenoreceptor α2B was tested using a recombinant human α2B receptor CHO cell line (PerkinElmer Life Sciences) which additionally also recombinantly expresses mtAeq. Antagonism against the adrenoreceptor α2C was tested using a recombinant human α2C receptor CHO cell line which additionally also recombinantly expresses a chimaric G protein (Gαqi3) and mtOb (mitochondrial obelin).
The cells were cultivated at 37° C. and 5% CO2 in Dulbecco's modified Eagle's Medium/NUT mix F12 with L-glutamine which additionally contains 10% (v/v) inactivated foetal calf serum, 1 mM sodium pyruvate, 0.9 mM sodium bicarbonate, 50 U/ml penicillin, 50 μg/ml streptomycin, 2.5 μg/ml amphotericin B and 1 mg/ml Geneticin. The cells were passaged with enzyme-free Hank's-based cell dissociation buffer. All cell culture reagents used were from Invitrogen (Carlsbad, USA).
Luminescence measurements were carried out on white 384-well microtitre plates. 2000 cells/well were plated in a volume of 25 μl and cultivated for one day at 30° C. and 5% CO2 in cell culture medium with coelenterazine (α2A and α2B: 5 μg/ml; α1a/c and α2C: 2.5 μg/ml). Serial dilutions of the test substances (10 μl) were added to the cells. After 5 minutes, noradrenaline was added to the cells (35 μl; final concentrations: 20 nM (α1a/c and α2C) or 200 nM (α2A and α2B)), and the emitted light was measured for 50 seconds using a CCD (charge-coupled device) camera (Hamamatsu Corporation, Shizuoka, Japan) in a light-tight box. The test substances were tested up to a maximum concentration of 10 μM. The IC50 values were calculated from the appropriate dose-response curves.

[2] = system: diabetic (ZDFfa/fa) and healthy rats (Wistar); assay: Assay of perfusion-enhancing substances (microcirculation), laser doppler at the paw; assay type: in vivo, rat
Description: In diabetic (ZDFfa/fa) and healthy rats (Wistar), a laser doppler probe was fastened under anaesthesia conditions (isoflurane anaesthesia) at the sole of the paw for measuring cutaneous microcirculation. The test animals were once treated orally with the test substances. During the experiment, microperfusion and temperature of the lower extremities were documented continuously. Here, a temperature-sensitive laser doppler probe (Periflux, O2C) was fastened with adhesive to the paws of the animals, allowing the measurement of microperfusion and skin temperature. The microcirculation measurement values were measured on both paws 30 min after oral administration of the test substance. […] Also stated is the MED for the significant increase of skin temperature (ttest).
Microcirculation data for adrenoreceptor α2C receptor antagonist of the compound of Example 8 and for the comparative substance ORM12741, an AR α2c receptor antagonist from Orion, are shown in Table 3: […]

[3] = system: conscious female Wistar rats; assay: Radiotelemetric measurement of blood pressure and heart rate of conscious rats; assay type: in vivo, rat; settings: oral 10 mg/kg
Description: A commercially available telemetry system from Data Sciences International DSI, USA, was employed for the measurements on conscious rats described below. The system consists of 3 main components: (1) implantable transmitters (Physiotel® telemetry transmitter), (2) receivers (Physiotel® receiver), which are linked via a multiplexer (DSI Data Exchange Matrix) to a (3) data acquisition computer. The telemetry system makes it possible to continuously record blood pressure, heart rate and body motion of conscious animals in their usual habitat.
The studies were conducted on adult female Wistar rats with a body weight of >200 g. After transmitter implantation, the experimental animals were housed singly in type III Makrolon® cages. They had free access to standard feed and water. The day/night rhythm in the test laboratory was set by changing the illumination of the room.
The telemetry transmitters used (PA-C40, DSI) were surgically implanted under aseptic conditions in the experimental animals at least 14 days before the first experimental use.
For the implantation, the fasted animals were anaesthetized with isoflurane (IsoFlo®, Abbott, initiation 5%, maintenance 2%) and shaved and disinfected over a large area of their abdomens. […]
Each of the instrumented rats living in the system was assigned a separate receiving antenna (RPC-1 Receiver, DSI). […] The signals emitted were detected online by a data acquisition system (Dataquest™ A.R.T. for Windows, DSI) and processed accordingly.
In the standard procedure, the following were measured for 10-second periods in each case: (1) systolic blood pressure (SBP), (2) diastolic blood pressure (DBP), (3) mean arterial pressure (MAP) and (4) heart rate (HR) and (5) activity (ACT). These parameters were measured over 24 hours after administration.
The acquisition of measurements was repeated under computer control at 5-minute intervals. The source data obtained as absolute values were corrected in the diagram with the currently measured barometric pressure (Ambient Pressure Reference Monitor, APR-1, DSI). […]

Structure (SMILES): CCC(CO)Nc1ncc(C(=O)N2CCC(N3CCc4ccccc4C3)CC2)cn1 (racemic) [Example 7, (rac)-[4-(3,4-Dihydroisoquinolin-2(1H)-yl)piperidin-1-yl]{2-[(1-hydroxybutan-2-yl)amino]pyrimidin-5-yl}methanone]
- pIC50 [1]: 7.17

Structure (SMILES): O=C(c1cnc(N2CC3(COC3)C2)nc1)N1CCC(N2CCc3ccc(F)cc3C2)CC1 [Example 9, [4-(7-Fluoro-3,4-dihydroisoquinolin-2(1H)-yl)piperidin-1-yl][2-(2-oxa-6-azaspiro[3.3]hept-6-yl)pyrimidin-5-yl]methanone]
- pIC50 [1]: 7.80

Structure (SMILES): CC1(C)CN(c2ncc(C(=O)N3CCC(N4CCc5ccccc5C4)CC3)cn2)CCO1 [Example 15, [4-(3,4-Dihydroisoquinolin-2(1H)-yl)piperidin-1-yl][2-(2,2-dimethylmorpholin-4-yl)pyrimidin-5-yl]methanone]
- pIC50 [1]: 7.17

Structure (SMILES): O=C(c1cnc(N2CCS(=O)(=O)CC2)nc1)N1CCC(N2CCc3ccccc3C2)CC1 [Example 12, [4-(3,4-Dihydroisoquinolin-2(1H)-yl)piperidin-1-yl][2-(1,1-dioxidothiomorpholin-4-yl)pyrimidin-5-yl]methanone]
- pIC50 [1]: 7.59

Structure (SMILES): CC1CN(c2ncc(C(=O)N3CCC(N4CCc5ccccc5C4)CC3)cn2)CC(C)O1 (stereo not drawn) [Example 13, [4-(3,4-Dihydroisoquinolin-2(1H)-yl)piperidin-1-yl][2-(2,6-dimethylmorpholin-4-yl)pyrimidin-5-yl]methanone (Cis Isomer)]
- pIC50 [1]: 7.33

Structure (SMILES): COc1ccc2c(c1)CCN(C1CCN(C(=O)c3cnc(N4CC5(COC5)C4)nc3)CC1)C2 [Example 10, [4-(6-Methoxy-3,4-dihydroisoquinolin-2(1H)-yl)piperidin-1-yl][2-(2-oxa-6-azaspiro[3.3]hept-6-yl)pyrimidin-5-yl]methanone]
- pIC50 [1]: 7.52

Structure (SMILES): COC[C@@]1(C)CCCN2CCc3c(oc4ccccc34)[C@@H]21 [ORM-12741, reference compound]
- factor by which microcirculation is improved at the MED compared to placebo ([2]; single oral dose at MED, 30 min after administration): 1.9 x
- MED microcirculation ([2]; single oral dose, measured 30 min after administration, significant vs placebo): 0.1 mg/kg
- MED skin temperature ([2]; single oral dose, significant increase of skin temperature (ttest)): 0.01 mg/kg
- blood pressure [3]: additional reduction in blood pressure

Structure (SMILES): CCC(COC)Nc1ncc(C(=O)N2CCC(N3CCc4cc(OC)ccc4C3)CC2)cn1 (racemic) [Example 5, (rac)-{2-[(1-Methoxybutan-2-yl)amino]pyrimidin-5-yl}[4-(6-methoxy-3,4-dihydroisoquinolin-2(1H)-yl)piperidin-1-yl]methanone]
- pIC50 [1]: 7.70

Structure (SMILES): CCC(COC)Nc1ncc(C(=O)N2CCC(N3CCc4ccc(F)cc4C3)CC2)cn1 (racemic) [Example 2, (rac)-[4-(7-Fluoro-3,4-dihydroisoquinolin-2(1H)-yl)piperidin-1-yl]{2-[(1-methoxybutan-2-yl)amino]pyrimidin-5-yl}methanone]
- pIC50 [1]: 7.59

Structure (SMILES): CC1CN(c2ncc(C(=O)N3CCC(N4CCc5ccccc5C4)CC3)cn2)CC(C)O1 (stereo not drawn) [Example 14, [4-(3,4-Dihydroisoquinolin-2(1H)-yl)piperidin-1-yl][2-(2,6-dimethylmorpholin-4-yl)pyrimidin-5-yl]methanone (Trans Isomer)]
- pIC50 [1]: 7.62

Structure (SMILES): CCC(COC)Nc1ncc(C(=O)N2CCC(N3CCc4ccc(OC)cc4C3)CC2)cn1 (racemic) [Example 4, (rac)-{2-[(1-Methoxybutan-2-yl)amino]pyrimidin-5-yl}[4-(7-methoxy-3,4-dihydroisoquinolin-2(1H)-yl)piperidin-1-yl]methanone]
- pIC50 [1]: 8.30

Structure (SMILES): O=C(O)[C@H]1CCCN1c1ncc(C(=O)N2CCC(N3CCc4ccccc4C3)CC2)cn1 [Example 11, 1-(5-{[4-(3,4-Dihydroisoquinolin-2(1H)-yl)piperidin-1-yl]carbonyl}pyrimidin-2-yl)-D-proline Hydrochloride]
- pIC50 [1]: 7.02

Structure (SMILES): COCCNc1ncc(C(=O)N2CCC(N3CCc4ccccc4C3)CC2)cn1 [Example 1, [4-(3,4-Dihydroisoquinolin-2(1H)-yl)piperidin-1-yl]{2-[(2-methoxyethyl)amino]pyrimidin-5-yl}methanone]
- pIC50 [1]: 7.09

Structure (SMILES): CCC(COC)Nc1ncc(C(=O)N2CCC(N3CCc4ccccc4C3)CC2)cn1 (racemic) [Example 6, (rac)-[4-(3,4-Dihydroisoquinolin-2(1H)-yl)piperidin-1-yl]{2-[(1-methoxybutan-2-yl)amino]pyrimidin-5-yl}methanone]
- pIC50 [1]: 7.51
